Assay results: paper PMC6508495, “Members of the abscisic acid co‐receptor PP2C protein family mediate salicylic acid–abscisic acid crosstalk” (Plant Direct, 2017)

Columns and labels:
[1] = target: T1, PP2C-D4 (Arabidopsis thaliana, UniProt Q94CL8); experiment: size-exclusion chromatography with [3H]SA; format: binding; settings: 200 nM [3H]SA; 200 ng/ul protein; labelled compound
T1 construct: gene PP2C6; ORF from Arabidopsis cDNA library in pET42a (NdeI/XhoI), His6-tagged, E. coli Rosetta 2 (DE3), Ni-NTA and gel filtration
T1 sequence (Q94CL8 1-384): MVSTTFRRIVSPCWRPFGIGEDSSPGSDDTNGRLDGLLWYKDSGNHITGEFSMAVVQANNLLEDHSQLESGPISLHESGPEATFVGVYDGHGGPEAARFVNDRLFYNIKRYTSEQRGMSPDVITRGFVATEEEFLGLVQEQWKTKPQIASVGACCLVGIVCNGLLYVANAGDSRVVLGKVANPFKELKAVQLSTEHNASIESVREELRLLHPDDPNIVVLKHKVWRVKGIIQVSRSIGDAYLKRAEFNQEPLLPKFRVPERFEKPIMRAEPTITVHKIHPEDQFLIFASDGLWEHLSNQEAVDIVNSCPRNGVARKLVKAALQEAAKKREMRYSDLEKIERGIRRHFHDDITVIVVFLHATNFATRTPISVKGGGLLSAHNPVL

[2] = target: T2, ABI2 (Arabidopsis thaliana, UniProt O04719); experiment: size-exclusion chromatography with [3H]SA; format: binding; settings: 200 nM [3H]SA; 200 ng/ul protein; labelled compound
T2 construct: ORF from Arabidopsis cDNA library in pET28a, His6-tagged, E. coli Rosetta 2 (DE3), Ni-NTA and gel filtration
T2 sequence (O04719 1-423): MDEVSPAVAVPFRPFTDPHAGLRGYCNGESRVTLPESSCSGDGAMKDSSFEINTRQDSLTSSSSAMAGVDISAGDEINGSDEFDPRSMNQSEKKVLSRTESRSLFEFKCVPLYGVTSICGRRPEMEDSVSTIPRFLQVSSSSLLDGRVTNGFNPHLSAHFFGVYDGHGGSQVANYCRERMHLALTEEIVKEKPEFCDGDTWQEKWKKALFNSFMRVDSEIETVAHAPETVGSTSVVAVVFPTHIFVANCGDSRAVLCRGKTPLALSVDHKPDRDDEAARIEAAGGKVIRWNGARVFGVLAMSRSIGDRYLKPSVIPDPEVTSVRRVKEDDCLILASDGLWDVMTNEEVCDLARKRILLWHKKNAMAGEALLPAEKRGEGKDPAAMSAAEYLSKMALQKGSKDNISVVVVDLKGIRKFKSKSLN

[3] = target: T3, ABI1 (Arabidopsis thaliana, UniProt P49597); experiment: size-exclusion chromatography with [3H]SA; format: binding; settings: 200 nM [3H]SA; 200 ng/ul protein; labelled compound
T3 construct: ORF from Arabidopsis cDNA library in pET28a, His6-tagged, E. coli Rosetta 2 (DE3), Ni-NTA and gel filtration
T3 sequence (P49597 1-434): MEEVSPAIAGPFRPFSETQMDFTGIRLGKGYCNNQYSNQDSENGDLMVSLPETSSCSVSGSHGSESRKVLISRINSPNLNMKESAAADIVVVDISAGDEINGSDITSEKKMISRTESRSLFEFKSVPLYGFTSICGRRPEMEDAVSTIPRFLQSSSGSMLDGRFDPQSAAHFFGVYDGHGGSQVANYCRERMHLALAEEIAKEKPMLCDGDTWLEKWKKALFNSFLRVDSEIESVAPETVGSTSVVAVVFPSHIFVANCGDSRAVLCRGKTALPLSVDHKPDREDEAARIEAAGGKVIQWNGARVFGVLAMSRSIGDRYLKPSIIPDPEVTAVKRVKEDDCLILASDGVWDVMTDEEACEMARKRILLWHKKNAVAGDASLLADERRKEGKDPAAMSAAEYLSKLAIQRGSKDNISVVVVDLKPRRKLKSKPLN

[4] = target: T2, ABI2; experiment: photoaffinity crosslinking, anti-SA immunoblot; format: binding; settings: 50 uM 4AzSA; 50 ng protein; photo-activated, covalent; competed by SA
[5] = target: T3, ABI1; experiment: photoaffinity crosslinking, anti-SA immunoblot; format: binding; settings: 50 uM 4AzSA; 50 ng protein; photo-activated, covalent; competed by SA
[6] = target: T2, ABI2; experiment: SPR, 3AESA immobilised on CM5 chip; format: binding; settings: 3AESA amide-coupled to chip; 1 uM protein; competed by SA
[7] = target: T3, ABI1; experiment: SPR, 3AESA immobilised on CM5 chip; format: binding; settings: 3AESA amide-coupled to chip; 1 uM protein; competed by SA
[8] = target: T1, PP2C-D4; experiment: SPR, 3AESA immobilised on CM5 chip; format: binding; settings: 3AESA amide-coupled to chip; 1 uM protein; competed by SA
[9] = target: T4, PYR1 with ABI1 (Arabidopsis thaliana, UniProt O49686); experiment: SPR of ABI1 binding to immobilised PYR1, enhanced by ABA; settings: indirect: ABA-enhanced receptor-PP2C interaction; HBS-EP buffer
T4 construct: His-SUMO-tagged PYR1 immobilised on CM5 chip; His6-ABI1 as analyte; both from E. coli; with Protein phosphatase 2C 56
T4 sequence (O49686 1-191): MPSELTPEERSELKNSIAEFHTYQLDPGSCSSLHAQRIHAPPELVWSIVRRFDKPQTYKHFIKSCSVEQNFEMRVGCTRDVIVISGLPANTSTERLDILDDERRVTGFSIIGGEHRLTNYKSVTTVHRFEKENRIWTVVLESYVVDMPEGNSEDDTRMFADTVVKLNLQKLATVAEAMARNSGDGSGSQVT
T4 sequence (P49597 1-434 partner): T3 sequence (P49597 1-434)

[10] = target: T5, PYL2 with ABI1 (Arabidopsis thaliana, UniProt O80992); experiment: SPR of ABI1 binding to immobilised PYL2, enhanced by ABA; settings: indirect: ABA-enhanced receptor-PP2C interaction; HBS-EP buffer
T5 construct: His-SUMO-tagged PYL2 immobilised on CM5 chip; His6-ABI1 as analyte; both from E. coli; with Protein phosphatase 2C 56
T5 sequence (O80992 1-190): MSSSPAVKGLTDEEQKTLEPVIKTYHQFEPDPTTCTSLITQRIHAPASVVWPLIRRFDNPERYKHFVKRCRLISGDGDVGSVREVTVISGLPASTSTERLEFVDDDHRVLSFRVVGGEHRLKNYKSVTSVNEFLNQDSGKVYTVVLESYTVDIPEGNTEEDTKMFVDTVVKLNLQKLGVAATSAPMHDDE
T5 sequence (P49597 1-434 partner): T3 sequence (P49597 1-434)

[11] = target: T6, PYL1 with ABI1 (Arabidopsis thaliana, UniProt Q8VZS8); experiment: SPR of ABI1 binding to immobilised PYL1, enhanced by ABA; settings: indirect: ABA-enhanced receptor-PP2C interaction; HBS-EP buffer
T6 construct: His6-SUMO-tagged PYL1 immobilised on CM5 chip; His6-ABI1 as analyte; both from E. coli; with Protein phosphatase 2C 56
T6 sequence (Q8VZS8 2-221): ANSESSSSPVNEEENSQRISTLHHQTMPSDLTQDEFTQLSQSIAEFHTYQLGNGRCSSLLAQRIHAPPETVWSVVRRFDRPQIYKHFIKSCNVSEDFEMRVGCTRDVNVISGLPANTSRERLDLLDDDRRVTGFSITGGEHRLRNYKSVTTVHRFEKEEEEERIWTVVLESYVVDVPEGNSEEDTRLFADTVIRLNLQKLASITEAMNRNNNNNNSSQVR
T6 sequence (P49597 1-434 partner): T3 sequence (P49597 1-434)

O=C(O)c1ccccc1O [SA]
size-exclusion chromatography with [3H]SA [1]: PP2C‐D4's ability to bind SA also was confirmed by size‐exclusion chromatography using [^3H]SA | size-exclusion chromatography with [3H]SA [2]: ABI2's binding to [^3H]SA was comparable to that of PP2C‐D4 | size-exclusion chromatography with [3H]SA [3]: ABI1 exhibited relatively weak binding to [^3H]SA

[N-]=[N+]=Nc1ccc(C(=O)O)c(O)c1 [4AzSA]
photoaffinity crosslinking, anti-SA immunoblot [4]: recombinant ABI1 and ABI2 bound the 3AESA‐immobilized sensor chip and crosslinked with 4AzSA | photoaffinity crosslinking, anti-SA immunoblot [5]: recombinant ABI1 and ABI2 bound the 3AESA‐immobilized sensor chip and crosslinked with 4AzSA

NCCc1cccc(C(=O)O)c1O [3AESA]
SPR, 3AESA immobilised on CM5 chip [6]: recombinant ABI1 and ABI2 bound the 3AESA‐immobilized sensor chip and crosslinked with 4AzSA | SPR, 3AESA immobilised on CM5 chip [7]: recombinant ABI1 and ABI2 bound the 3AESA‐immobilized sensor chip and crosslinked with 4AzSA | SPR, 3AESA immobilised on CM5 chip [8]: Binding to 3AESA was detected when purified PP2C‐D4 was passed over the sensor chip

CC1=CC(=O)CC(C)(C)[C@@]1(O)/C=C/C(C)=C\C(=O)O [ABA]
SPR of ABI1 binding to immobilised PYR1, enhanced by ABA [9]: dose‐dependent binding to the PP2Cs, which was further enhanced in the presence of ABA | SPR of ABI1 binding to immobilised PYL2, enhanced by ABA [10]: dose‐dependent binding to the PP2Cs, which was further enhanced in the presence of ABA | SPR of ABI1 binding to immobilised PYL1, enhanced by ABA [11]: this binding was enhanced several fold in the presence of ABA
